Assays:
Lck (p56^lck) = target: T1, Lck (p56^lck) (Mus musculus, UniProt P06240); assay: Lck tyrosine kinase activity, poly E4Y and 32P-ATP; type: biochemical
T1 construct: glutathione-S-transferase (GST) (N); made in house; host or cells: E. coli
Description: (§1) The genes encoding Csk, Lck, Abl, and the FGF receptor have all been cloned. The genes encoding Csk, Abl, and the FGF receptor were cloned from humans, and the genes encoding Lck were cloned from a mouse. Recombinant Csk, Lck, Abl, and the FGFr were expressed as glutathione-S-transferase fusion proteins using the pGEX expression vector and E. coli, and purified as described (Sun et al., 1995).
(§2) Recombinant Src was expressed using the baculovirus-insect cell system and purified as published (Budde et al, 1993). Recombinant Csk, Lck, Abl, and the FGFr were expressed as glutathione-S-transferase fusion proteins using the pGEX expression vector and E. coli, and purified as described (Sun and Budde, 1995).
(§3) The tyrosine kinase activity of Src, Lck (p56^lck), Csk (C-Src kinase), Abl (Bcr-Abl catalytic domain), and the FGFr (fibroblast growth factor receptor catalytic domain), was determined using poly E4 Y and ^32 P-ATP.

[1] = system: HT-29 colon adenocarcinoma cells; assay: Anchorage-independent growth, soft agar colony formation; type: cell-based, human
Protocol: Soft agar colony formation is used to determine anchorage independent growth, an in vitro parameter which correlates well with tumorigenicity of HT 29 cells. (AFB-13 cells are unable to form soft agar colonies, a characteristic of normal cells). These assays are performed in 6 well ([…]) multiwell tissue culture dishes. The wells are underlayed with 1% low melting agarose in complete growth media, and refrigerated for 15 min. 1×10^3 HT 29 cells are then added to the wells in complete media in 0.5% low melting agarose. […] After a 24 h incubation period, 0.5 mL of media containing compound to be tested (or media alone as a control) is added to the dish. During the assay, media with or without the test compound is replenished every 3 days. Colonies estimated to contain >100 cells are counted after 14 days. For compounds that induce growth inhibition, the assay is continued to 28 days to assure that differences in colony forming ability were not due to altered growth rate of cells. For initial screening, assays are performed in duplicate for each compound to be tested, due to the large amount of inhibitor required for the length of the study.

Csk (C-Src kinase) = target: T2, Csk (C-Src kinase) (Homo sapiens, UniProt P41240); assay: Csk tyrosine kinase activity, poly E4Y and 32P-ATP; type: biochemical
T2 construct: glutathione-S-transferase (GST) (N); made in house; host or cells: E. coli
T2 sequence (P41240 whole entry): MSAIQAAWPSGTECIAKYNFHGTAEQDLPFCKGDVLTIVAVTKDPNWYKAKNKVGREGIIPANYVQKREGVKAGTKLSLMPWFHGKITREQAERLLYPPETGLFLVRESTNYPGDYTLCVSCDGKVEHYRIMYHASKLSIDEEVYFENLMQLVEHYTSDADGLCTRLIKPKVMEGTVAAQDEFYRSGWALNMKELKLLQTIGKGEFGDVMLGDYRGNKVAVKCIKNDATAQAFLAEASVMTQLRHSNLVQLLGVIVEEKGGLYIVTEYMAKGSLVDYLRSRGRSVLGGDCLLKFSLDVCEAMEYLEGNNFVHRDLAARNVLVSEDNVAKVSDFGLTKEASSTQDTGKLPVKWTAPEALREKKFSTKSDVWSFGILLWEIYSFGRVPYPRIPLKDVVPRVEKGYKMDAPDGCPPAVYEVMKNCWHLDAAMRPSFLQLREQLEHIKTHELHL
Description: as §1, §2, §3

Yes = Yes (Homo sapiens, UniProt P07947); assay: Enzyme panel: Yes; type: biochemical; details: apparent value against variable poly E4Y
Yes, sequence (P07947 whole entry, species assumed): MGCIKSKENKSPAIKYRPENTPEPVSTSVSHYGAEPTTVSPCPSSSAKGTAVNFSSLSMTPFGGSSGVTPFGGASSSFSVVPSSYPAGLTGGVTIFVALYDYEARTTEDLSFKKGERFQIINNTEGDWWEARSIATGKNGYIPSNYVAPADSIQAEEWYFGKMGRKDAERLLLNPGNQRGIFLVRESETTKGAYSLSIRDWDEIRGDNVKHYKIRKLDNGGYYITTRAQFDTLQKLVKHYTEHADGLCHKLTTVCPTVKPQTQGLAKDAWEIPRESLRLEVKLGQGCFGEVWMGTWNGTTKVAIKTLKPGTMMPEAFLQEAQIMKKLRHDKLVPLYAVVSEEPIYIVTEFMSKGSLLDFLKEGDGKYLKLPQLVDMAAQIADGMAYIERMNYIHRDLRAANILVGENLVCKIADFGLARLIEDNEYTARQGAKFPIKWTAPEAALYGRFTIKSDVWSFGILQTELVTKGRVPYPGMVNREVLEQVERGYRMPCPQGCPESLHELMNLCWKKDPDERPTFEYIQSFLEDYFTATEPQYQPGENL

protein kinase A (PKA) = protein kinase A (PKA) (Homo sapiens, UniProt P17612); assay: Enzyme panel: protein kinase A; type: biochemical
[2] = system: HT-29 colon adenocarcinoma cells; assay: Growth of HT-29 cells, viable cell count; type: cell-based, human; details: viable cell count 5 days after plating
Protocol: (§4) For these assays 2×10^4 cells are plated in 24 well multiwell tissue culture dishes, in 1 ml of DME/F12 media supplemented with 5% fetal bovine serum. After 24 h, media is replaced with fresh media containing the concentration of inhibitor to be tested, or no inhibitor as a control. Cells are counted 1, 3, and 5 days subsequent to addition of inhibitor. For the day 5 counts, media with fresh inhibitor is used to replace spent media after day 3. […] For counting viable cells, cultures are trypsinized, stained with trypan blue, and cell number determined by counting under light microscopy with the use of a hemacytometer. Benzodiazepine derivatives were tested at their maximally soluble concentrations in 0.1% DMSO diluted with tissue culture medium, and serial dilutions were made thereof. Every concentration tested was performed in triplicate, in identical wells under identical assay conditions.

[3] = system: AFB-13 normal human fibroblasts; assay: Growth of AFB-13 cells, control for cellular toxicity; type: cell-based
Protocol: as §4

Src = target: T3, Src (Homo sapiens, UniProt P12931); assay: Src tyrosine kinase activity, poly E4Y and 32P-ATP; type: biochemical
T3 construct: made in house; host or cells: baculovirus-insect cell system
T3 sequence (P12931 whole entry, species assumed): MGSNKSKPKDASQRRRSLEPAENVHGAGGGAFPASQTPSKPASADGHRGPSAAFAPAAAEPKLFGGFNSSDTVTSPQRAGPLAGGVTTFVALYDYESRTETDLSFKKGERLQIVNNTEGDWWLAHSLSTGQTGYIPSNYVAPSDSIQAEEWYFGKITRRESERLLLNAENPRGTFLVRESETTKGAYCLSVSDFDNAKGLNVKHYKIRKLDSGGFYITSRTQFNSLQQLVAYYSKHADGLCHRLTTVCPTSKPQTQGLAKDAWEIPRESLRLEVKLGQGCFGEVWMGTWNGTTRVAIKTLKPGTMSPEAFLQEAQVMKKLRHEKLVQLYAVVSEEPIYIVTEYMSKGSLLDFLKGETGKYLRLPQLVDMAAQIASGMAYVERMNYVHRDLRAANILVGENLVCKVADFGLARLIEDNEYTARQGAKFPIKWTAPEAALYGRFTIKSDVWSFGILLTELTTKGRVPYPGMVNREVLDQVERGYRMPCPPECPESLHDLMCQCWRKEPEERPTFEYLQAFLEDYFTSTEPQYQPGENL
Protocol: The compounds within the library were screened at a concentration of 100 μM using the following assay procedure. A 10 μL aliquot of poly(Glu:Tyr, 4:1) to final concentration of 200 μg/mL, 20 μL of benzodiazepine to be tested, 10 μL of purified Src and 10 μL of [gamma-^32 P]-ATP-MgCl2 cocktail (final concentration of 0.2 mM ATP; specific activity of 600 dpm/pmol, and 6 mM MgCl2) were mixed and incubated in 0.5 mL test tubes at ambient temperature. After 30 min, a 35 μL aliquot was spotted onto a 1×1 inch 3 MM filter paper and dropped into a 5% TCA bath at 60° C. The filter papers were washed 3 times with 5% TCA and air dried. The filter papers were then placed into a vial, 3 mL scintillation cocktail added, and analyzed by liquid scintillation counting.
as §3

T1 sequence (P06240 whole entry): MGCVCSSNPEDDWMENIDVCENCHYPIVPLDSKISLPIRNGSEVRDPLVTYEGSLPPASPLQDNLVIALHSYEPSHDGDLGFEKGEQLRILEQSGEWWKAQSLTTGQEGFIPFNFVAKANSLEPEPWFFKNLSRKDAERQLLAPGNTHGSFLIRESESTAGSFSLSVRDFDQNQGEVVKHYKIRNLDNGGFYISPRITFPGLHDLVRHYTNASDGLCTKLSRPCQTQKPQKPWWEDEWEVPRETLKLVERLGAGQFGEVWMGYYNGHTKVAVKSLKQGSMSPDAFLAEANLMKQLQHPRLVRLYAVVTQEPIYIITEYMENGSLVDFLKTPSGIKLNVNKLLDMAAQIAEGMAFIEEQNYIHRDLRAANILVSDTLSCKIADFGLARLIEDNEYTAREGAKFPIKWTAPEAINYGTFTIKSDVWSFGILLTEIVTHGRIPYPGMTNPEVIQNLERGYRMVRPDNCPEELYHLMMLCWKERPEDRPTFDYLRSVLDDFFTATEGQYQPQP

In the case of `O=C1[C@H](Cc2ccc(O)cc2)N=C(c2ccc(O)cc2)c2cc(Cl)ccc2N1Cc1ccc(-c2ccccc2)cc1` [L-Tyr,BnzPh, 7-chloro-1,3-dihydro-1-(-4-biphenylmethyl)-3-(-4-hydroxyphenylmethyl)-5-(4-hydroxyphenyl)-(2H)1,4-benzodiazepin-2-one], the IC50 (Lck (p56^lck)) is reported as 505 µM, the “inhibition of colony formation of HT-29 colon adenocarcinoma cells” value ([1]; 28 μM) is reported as “complete inhibition” and the activity at 3 µM ([1]; Homo sapiens, HT-29, 336 h, 3 μM, colonies ≥100 cells 14 days after plating) is reported as 29%. It also gave an activity at 14 µM ([1]; Homo sapiens, HT-29, 336 h, 14 μM, colonies ≥100 cells 14 days after plating) of 8%, an activity at 28 µM ([1]; Homo sapiens, HT-29, 336 h, 28 μM, colonies ≥100 cells 14 days after plating) of 0% and an IC50 (Csk (C-Src kinase)) of 136 µM. It also gave a Ki (Csk (C-Src kinase); apparent value against variable poly E4Y) of 63 µM, a Ki (Yes) of 50 µM and an IC50 (protein kinase A (PKA)) of 450 µM. The Ki (protein kinase A (PKA); apparent value) was 104 µM, the “HT-29 Growth” value ([2]; 28 μM) was “cytotoxic” and the activity at 3 µM ([2]; Homo sapiens, HT-29, 120 h, 3 μM) was 100 ± 10%. It also gave an activity at 14 µM ([2]; Homo sapiens, HT-29, 120 h, 14 μM) of 98 ± 9%, an activity at 3 µM ([3]; Homo sapiens, Fibroblast, 120 h, 3 μM, viable cell count 5 days after plating) of 89 ± 6% and an activity at 14 µM ([3]; Homo sapiens, Fibroblast, 120 h, 14 μM, viable cell count 5 days after plating) of 97 ± 5%. The activity at 28 µM ([3]; Homo sapiens, Fibroblast, 120 h, 28 μM, viable cell count 5 days after plating) was 90 ± 4%, the “inhibition of growth of AFB-13 normal fibroblasts” value ([3]; same concentrations (up to 28 μM)) was “Less than 10%” and the IC50 (Src) was 73 µM. The Ki (Src; Table 10, benzodiazepines as inhibitors of Src) was 20 µM and the mode of inhibition (Src; against variable ATP or variable poly E4Y) was “mixed”.

From patent US6100254A, “Inhibitors of protein tyrosine kinases” (Board of Regents, The University of Texas System, priority 1997, dated 2000)
